Assays:
[1] = test system: RAS/MAPK pathway (P-RSK, P-ERK) in BRAF V600E mutant CRC cell lines RKO and HT-29; assay: Western blot of phosphorylation of RSK (P-RSK) and ERK (P-ERK), encorafenib in combination with MEK and ERK inhibitors; format: cell-based, human; conditions: plus BRAF inhibitor encorafenib; incubation up to 72 hours; Compound 1 at one-tenth the concentration used for the MEK and other ERK inhibitors; FIG. 3A-3D
Text: Treatment of two BRAF V600E mutant CRC cell lines, RKO and HT-29, with encorafenib in combination with the MEK inhibitor binimetinib, the ERK inhibitor Compound 1, the ERK inhibitor LY3214996, and the ERK inhibitor ravoxertinib. The Western blot gels depict phosphorylation of RSK (P-RSK) and ERK (P-ERK). Higher levels of phosphorylation are depicted by higher (i.e., darker) band intensity. Total GAPDH protein (GAPDH) serves as a loading control. ERK signaling activity is represented by the phosphorylation state of RSK (P-RSK), which is a downstream target of ERK. The column values indicate the duration of compound incubation of up to 72 hours. FIG. 3A-FIG. 3D.

[2] = test system: encorafenib refractory-BRAF^V600E RKO and WiDr CDX models; assay: In-vivo assay, tumor growth in xenograft (CDX) models; set-up: species or system Female Balb/c nude mice; conditions: compound 1 combined with encorafenib, oral, FIG. 2A, 2B
Protocol: The vehicle/control article, 0.5% Methyl Cellulose & 0.1% Tween 80 or 100 mM acetic acid in deionized water with pH adjustment to 4.8-5.0, was prepared and stored under ambient conditions throughout the study period.
The test article compound 1 was freshly prepared in vehicle of 0.5% Methyl Cellulose & 0.1% Tween 80 weekly and stored under ambient conditions. The combination agent, encorafenib, was freshly prepared in vehicle of 0.5% CMC and 0.5% Tween 80 weekly and stored at 2-8° C.
Female Balb/c nude mice were purchased from the Beijing Vital River Laboratory Animal Technology Co., Ltd. Mice were hosted at special pathogen-free (SPF) environment of vivarium facility and acclimated to their new environment for at least 3 days prior to initiation of any experiments. Mice were between 6-8 weeks of age at the time of implantation.
RKO is a human CRC tumor cell line that harbors a BRAF^V600E mutation. The RKO cell line was purchased from the American Type Culture Collection (ATCC® CRL-2577™). RKO cells were cultured in medium containing EMEM plus 10% Fetal Bovine Serum (FBS) supplemented with non-essential amino acids at 37° C. in an atmosphere of 5% CO2 in air. RKO cells in 200 μL cell suspensions containing 2×10^6 cells mixed with 50% Matrigel were implanted into mice subcutaneously. […]

[3] = test system: cell lines harboring a BRAF^V600E mutation (RKO, HT-29, WiDr, MDST8, LIM2405 cells); assay: In-vitro 3D cell viability assay (CellTiter-Glo 3D), dilution matrix of compound 1 versus encorafenib, BLISS model; format: cell-based, human; conditions: compound 1 combined with encorafenib, 5 days post-treatment, FIG. 1A-1E
Protocol: Cells were plated at a density of 1,000 (RKO, HT-29, WiDr, MDST8) or 5,000 (LIM2405) cells per well in a 96-well plate (Corning #3903). Cells were allowed to adhere overnight, and compound was added in a matrix format using a HP Tecan D300e digital dispenser (Switzerland). Compound 1 was added in a 1:3 dilution series (8-point dose response) from bottom to top of plate (rows B-H) and encorafenib was added in a 1:3 dilution series ([…] dose response) from right to left (columns 2-11). Final DMSO concentration was normalized across the plate. Cell viability was assessed 5-days post-treatment using Promega CellTiter-Glo 3D Cell Viability Assay reagent (#G9683) according to manufacturer's protocol.
RKO cells (FIG. 1A), HT-29 cells (FIG. 1B), WiDr cells (FIG. 1C), MDST8 cells (FIG. 1D), and LIM2405 (FIG. 1E) were treated with a dilution matrix of compound 1 versus encorafenib in 3D cell viability assays. Cell viability, as expressed as a percentage of viable cells relative to vehicle treated control, is shown in the matrix.

SMILES	RAS/MAPK pathway feedback reactivation (P-RSK, P-ERK) [1]	combination benefit in vivo (tumor growth curves) [2]	combination benefit in vitro (cell viability, BLISS model) [3]
Cc1cnc(NC2CCOCC2)nc1-n1cnc(C(=O)N[C@H](CN)c2cc(F)cc(Cl)c2)c1 [Compound 1, (S)-N-(2-amino-1-(3-chloro-5-fluorophenyl)ethyl)-1-(5-methyl-2-((tetrahydro-2H-pyran-4-yl)amino)pyrimidin-4-yl)-1H-imidazole-4-carboxamide]	blocked the RAS/MAPK pathway feedback reactivation	combination benefit	combination benefit
COC(=O)N[C@@H](C)CNc1nccc(-c2cn(C(C)C)nc2-c2cc(Cl)cc(NS(C)(=O)=O)c2F)n1 [encorafenib, Encorafenib, reference compound]	–	combination benefit	combination benefit

Source: patent US20240316046A1, “ERK1/2 INHIBITOR COMBINATION THERAPY” (Asana Biosciences, LLC, priority 2021, published 2024)
